We go through 17 compounds from patent US12240844B2 (Voronoi, Inc., priority 2019, dated 2025).

SMILES strings stand for the structures.

One may read the IC50 as the concentration that inhibits the measured activity by half.

Format in all cases: biochemical
For test [1], the target named is T1, human GST-DYRK1A (full length) (Homo sapiens, UniProt Q13627).
T1 construct: purified human GST-DYRK1A (full length, Thermo scientifics) enzyme; GST; purchased Thermo scientifics
Kind of test: GST-DYRK1A enzyme inhibition, ADP-Glo kinase assay. As to conditions: read-out: DYRK1 IC50. A digest of the protocol: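 Full-length human GST-DYRK1A (10 ng) incubated with 10 uM ATP and specific substrate for 1 h at 25° C in 40 mM Tris-HCl pH 7.4, 20 mM MgCl2, 0.5 mg/mL BSA, 50 uM DTT. ADP formation read by ADP-Glo luminescence; IC50 (nM) versus solvent control, triplicate.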
In general terms: In ADP-Glo the light output rises with the ADP produced.

Test [2] addresses T2, human GST-CLK1 (129-end) (Homo sapiens, UniProt P49759).
T2 construct: purified human GST-CLK1 (129-end, Signalchem) enzyme; GST; purchased Signalchem
Nature of the test: GST-CLK1 enzyme inhibition, ADP-Glo kinase assay. Particulars: ATP 10 uM. A digest of the protocol:
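GST-CLK1 (129-end, 3 ng) reacted with 10 uM ATP and substrate in 40 mM Tris-HCl pH 7.4, 20 mM MgCl2, 0.5 mg/mL BSA, 50 uM DTT, 1 h at 25° C. ADP-Glo luminescence normalised to solvent control; IC50 from triplicate data.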

Test [3] concerns the target LRRK2 (Homo sapiens, UniProt Q5S007). Nature of the test: LRRK2 enzyme inhibition, ADP-Glo kinase assay. The arrangement: purchased Invitrogen PR8604B. Summed up: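 Purified human LRRK2 (25 ng) in 40 mM Tris-HCl pH7.4, 20 mM MgCl2, 0.5 mg/ml BSA, 50 μM DTT with 10 μM ATP and substrate ([…]), 2 h at 25° C. Final compound 50 to 0.000001024 μM, 12-point dilution. ADP-Glo luminescence vs solvent control; IC50 (nM).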

For test [4], the target named is LRRK2 (G2019S) (Homo sapiens, UniProt Q5S007, G2019S). Nature of the test: LRRK2 G2019S enzyme inhibition, ADP-Glo kinase assay. Also on record: purchased SignalChem L10-12GG. Summed up:
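Purified human LRRK2 G2019S (16 ng) with 25 μM ATP and 0.2 μg substrate, 2 h at 25° C in 40 mM Tris-HCl pH 7.4, 20 mM MgCl2, 0.5 mg/ml BSA, 50 μM DTT; compound at 12 final concentrations from 50 μM downward. ADP-Glo luminescence versus solvent control gave IC50 (nM).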

LRRK2, sequence (Q5S007 970-2527 limits assumed): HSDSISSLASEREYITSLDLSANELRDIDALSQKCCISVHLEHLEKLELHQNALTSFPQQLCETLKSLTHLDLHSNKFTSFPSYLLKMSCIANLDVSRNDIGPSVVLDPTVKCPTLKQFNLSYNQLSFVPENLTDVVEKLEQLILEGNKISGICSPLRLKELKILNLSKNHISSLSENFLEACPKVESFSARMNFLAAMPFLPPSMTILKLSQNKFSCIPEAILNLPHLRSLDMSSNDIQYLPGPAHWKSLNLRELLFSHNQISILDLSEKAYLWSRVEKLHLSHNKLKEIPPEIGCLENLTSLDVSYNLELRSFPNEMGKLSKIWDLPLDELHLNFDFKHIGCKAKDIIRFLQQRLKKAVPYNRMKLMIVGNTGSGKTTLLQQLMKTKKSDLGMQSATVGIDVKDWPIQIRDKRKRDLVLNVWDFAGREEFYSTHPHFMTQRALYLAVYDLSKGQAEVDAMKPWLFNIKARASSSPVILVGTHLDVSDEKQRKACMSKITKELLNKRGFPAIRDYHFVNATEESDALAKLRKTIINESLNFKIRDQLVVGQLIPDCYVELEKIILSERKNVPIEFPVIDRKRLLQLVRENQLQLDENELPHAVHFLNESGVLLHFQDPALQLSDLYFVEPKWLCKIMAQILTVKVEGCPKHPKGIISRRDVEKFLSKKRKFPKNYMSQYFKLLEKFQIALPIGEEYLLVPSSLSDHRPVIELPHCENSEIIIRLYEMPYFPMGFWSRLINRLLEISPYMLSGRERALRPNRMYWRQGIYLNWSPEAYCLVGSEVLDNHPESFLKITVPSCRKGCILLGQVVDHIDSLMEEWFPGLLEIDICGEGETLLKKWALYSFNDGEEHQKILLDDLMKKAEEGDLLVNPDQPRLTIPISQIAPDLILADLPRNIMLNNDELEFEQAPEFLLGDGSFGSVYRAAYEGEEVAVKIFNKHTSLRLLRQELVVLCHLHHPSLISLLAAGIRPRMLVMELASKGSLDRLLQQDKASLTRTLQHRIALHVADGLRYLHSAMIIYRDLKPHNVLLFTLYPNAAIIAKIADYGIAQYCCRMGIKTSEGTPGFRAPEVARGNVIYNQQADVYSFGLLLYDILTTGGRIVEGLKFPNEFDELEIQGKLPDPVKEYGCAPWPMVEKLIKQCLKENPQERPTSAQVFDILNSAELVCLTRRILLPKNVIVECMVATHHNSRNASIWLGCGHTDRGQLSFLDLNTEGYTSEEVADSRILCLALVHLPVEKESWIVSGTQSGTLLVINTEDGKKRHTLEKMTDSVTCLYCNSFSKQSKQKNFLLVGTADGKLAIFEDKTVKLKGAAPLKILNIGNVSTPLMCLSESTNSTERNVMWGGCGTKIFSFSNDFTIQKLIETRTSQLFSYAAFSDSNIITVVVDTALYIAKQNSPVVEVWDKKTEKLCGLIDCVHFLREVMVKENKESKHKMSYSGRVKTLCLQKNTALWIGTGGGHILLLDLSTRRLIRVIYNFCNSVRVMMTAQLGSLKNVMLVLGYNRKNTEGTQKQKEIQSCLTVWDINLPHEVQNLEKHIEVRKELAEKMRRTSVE
LRRK2 (G2019S), sequence (Q5S007 970-2527 G2019S limits assumed): as the sequence (Q5S007 970-2527 limits assumed) above, with G1050S counted along it
T2 sequence (P49759 129-484 limits assumed): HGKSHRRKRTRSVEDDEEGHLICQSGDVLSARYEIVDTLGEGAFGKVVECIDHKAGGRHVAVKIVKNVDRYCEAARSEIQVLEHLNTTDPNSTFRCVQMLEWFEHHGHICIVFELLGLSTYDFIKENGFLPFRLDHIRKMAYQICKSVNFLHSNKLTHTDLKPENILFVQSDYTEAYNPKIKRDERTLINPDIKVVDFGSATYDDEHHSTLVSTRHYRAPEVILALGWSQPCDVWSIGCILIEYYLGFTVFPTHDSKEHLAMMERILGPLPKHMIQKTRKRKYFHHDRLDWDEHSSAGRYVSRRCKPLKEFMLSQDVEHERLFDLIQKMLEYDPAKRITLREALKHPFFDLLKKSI

Turning to `CCNc1cc(Nc2ccc(C(=O)N3CCC(N4CCOCC4)CC3)c3c2OCCO3)nc2[nH]cc(C(F)(F)F)c12` [Example 161, (8-((4-(ethylamino)-3-(trifluoromethyl)-1H-pyrrolo[2,3-b]pyridin-6-yl)amino)-2,3-dihydrobenzo[b] [1,4]dioxin-5-yl)(4-morpholinopiperidin-1-yl)methanone], the IC50 in test [1] was 101 to 300 nM; in test [2], under 100 nM; in test [3] it was under 100 nM; in test [4], under 100 nM.
On to `COCCNc1cc(Nc2ccc(C(=O)N3CCC(N4CCOCC4)CC3)c3c2OCCO3)nc2[nH]cc(C(F)(F)F)c12` [Example 164, (8-((4-((2-methoxyethyl)amino)-3-(trifluoromethyl)-1H-pyrrolo[2,3-b]pyridin-6-yl)amino)-2,3-dihydrobenzo[b] [1,4]dioxin-5-yl)(4-morpholinopiperidin-1-yl)methanone], for which the IC50 in test [1], in test [2], in test [3] and in test [4] was under 100 nM each time.
Take `CS(=O)(=O)CCNc1cc(Nc2ccc(C(=O)N3CCC(N4CCOCC4)CC3)c3c2OCCO3)nc2[nH]cc(C(F)(F)F)c12` [Example 165, (8-((4-((2-(methylsulfonyl)ethyl)amino)-3-(trifluoromethyl)-1H-pyrrolo[2,3-b]pyridin-6-yl)amino)-2,3-dihydrobenzo[b] [1,4]dioxin-5-yl)(4-morpholinopiperidin-1-yl)methanone]: the IC50 in test [1], in test [2], in test [3] and in test [4] was under 100 nM in each case.
With `CNc1cc(Nc2ccc(S(=O)(=O)N3CCOCC3)cc2OC)nc2[nH]cc(C(F)(F)F)c12` [Example 177, N^6-(2-methoxy-4-(morpholinosulfonyl)phenyl)-N^4-methyl-3-(trifluoromethyl)-1H-pyrrolo[2,3-b]pyridine-4,6-diamine], the IC50 in test [1], in test [2], in test [3] and in test [4] was 301 to 1000 nM in each case.
Regarding `CNc1cc(Nc2ccc(S(C)(=O)=O)cc2OC)nc2[nH]cc(C(F)(F)F)c12` [Example 178, N^6-(2-methoxy-4-(methylsulfonyl)phenyl)-N^4-methyl-3-(trifluoromethyl)-1H-pyrrolo[2,3-b]pyridine-4,6-diamine], the half-maximal inhibitory concentration (IC50) in test [1] is under 100 nM; in test [2], 301 to 1000 nM; in test [3], 301 to 1000 nM; in test [4], 301 to 1000 nM.
Consider `CCNc1cc(Nc2ccc(S(C)(=O)=O)cc2OC)nc2[nH]cc(C(F)(F)F)c12` [Example 180, N^4-ethyl-N^6-(2-methoxy-4-(methylsulfonyl)phenyl)-3-(trifluoromethyl)-1H-pyrrolo[2,3-b]pyridine-4,6-diamine], for which the IC50 in test [1], in test [2], in test [3] and in test [4] was 301 to 1000 nM in each case.
On to `COc1cc(S(C)(=O)=O)ccc1Nc1cc(NC2CCCCC2)c2c(C(F)(F)F)c[nH]c2n1` [Example 182, N^4-cyclohexyl-N^6-(2-methoxy-4-(methylsulfonyl)phenyl)-3-(trifluoromethyl)-1H-pyrrolo[2,3-b]pyridine-4,6-diamine], for which the 50% inhibitory concentration (IC50) in test [1], in test [2], in test [3] and in test [4] was 301 to 1000 nM each time.
With `COc1cc(S(=O)(=O)N2CCC(N3CCOCC3)CC2)ccc1Nc1cc(NC2CCCCC2)c2c(C(F)(F)F)c[nH]c2n1` [Example 183, N^4-cyclohexyl-N^6-(2-methoxy-4-((4-morpholinopiperidin-1-yl)sulfonyl)phenyl)-3-(trifluoromethyl)-1H-pyrrolo[2,3-b]pyridine-4,6-diamine], the 50% inhibitory concentration (IC50) in test [1], in test [2], in test [3] and in test [4] was 301 to 1000 nM each time.
Regarding `COc1cc(S(C)(=O)=O)ccc1Nc1cc(NC2CC2)c2c(C(F)(F)F)c[nH]c2n1` [Example 187, N^4-cyclopropyl-N^6-(2-methoxy-4-(methylsulfonyl)phenyl)-3-(trifluoromethyl)-1H-pyrrolo[2,3-b]pyridine-4,6-diamine], the IC50 in test [1], in test [2], in test [3] and in test [4] was 301 to 1000 nM each time.
With `COc1cc(S(C)(=O)=O)ccc1Nc1cc(NCC(C)C)c2c(C(F)(F)F)c[nH]c2n1` [Example 190, N^4-isobutyl-N^6-(2-methoxy-4-(methylsulfonyl)phenyl)-3-(trifluoromethyl)-1H-pyrrolo[2,3-b]pyridine-4,6-diamine], the IC50 in test [1], in test [2], in test [3] and in test [4] was 301 to 1000 nM throughout.
With `COc1cc(S(C)(=O)=O)ccc1Nc1cc(NCCS(C)(=O)=O)c2c(C(F)(F)F)c[nH]c2n1` [Example 193, N^6-(2-methoxy-4-(methylsulfonyl)phenyl)-N^4-(2-(methylsulfonyl)ethyl)-3-(trifluoromethyl)-1H-pyrrolo[2,3-b]pyridine-4,6-diamine], the half-maximal inhibitory concentration (IC50) in test [1] is under 100 nM; in test [2], under 100 nM; in test [3], 301 to 1000 nM; in test [4], 301 to 1000 nM.
Turning to `CCCNc1cc(Nc2ccc(S(C)(=O)=O)cc2OC)nc2[nH]cc(C(F)(F)F)c12` [Example 200, N^6-(2-methoxy-4-(methylsulfonyl)phenyl)-N^4-propyl-3-(trifluoromethyl)-1H-pyrrolo[2,3-b]pyridine-4,6-diamine], the IC50 in test [1], in test [2], in test [3] and in test [4] was 301 to 1000 nM throughout.
For the compound `COCCNc1cc(Nc2ccc(S(C)(=O)=O)cc2OC)nc2[nH]cc(C(F)(F)F)c12` [Example 201, N^6-(2-methoxy-4-(methylsulfonyl)phenyl)-N^4-(2-methoxyethyl)-3-(trifluoromethyl)-1H-pyrrolo[2,3-b]pyridine-4,6-diamine], the IC50 in test [1] lay within 301 to 1000 nM; in test [2] it was 301 to 1000 nM; in test [3], 101 to 300 nM; in test [4] it was 301 to 1000 nM.
On to `CCNc1cc(Nc2ccc(P(C)(=O)N3CCC(N4CCOCC4)CC3)cc2OC)nc2[nH]cc(C(F)(F)F)c12` (centres unmarked) [Example 208, (4-((4-(ethylamino)-3-(trifluoromethyl)-1H-pyrrolo[2,3-b]pyridin-6-yl)amino)-3-methoxyphenyl) (methyl)(4-morpholinopiperidin-1-yl)phosphine oxide], for which the IC50 is 101 to 300 nM in test [1], under 100 nM in test [2], under 100 nM in test [3] and under 100 nM in test [4].
On to `CCNc1cc(Nc2ccc(P(C)(C)=O)cc2OC)nc2[nH]cc(C(F)(F)F)c12` [Example 209, (4-((4-(ethylamino)-3-(trifluoromethyl)-1H-pyrrolo[2,3-b]pyridin-6-yl)amino)-3-methoxyphenyl) dimethylphosphine oxide], for which the half-maximal inhibitory concentration (IC50) is 101 to 300 nM in test [1], 301 to 1000 nM in test [2], under 100 nM in test [3] and under 100 nM in test [4].
On to `COc1cc(S(C)(=O)=O)ccc1Nc1cc(C2CC2)c2c(C#N)c[nH]c2n1` [Example 229, 4-cyclopropyl-6-((2-methoxy-4-(methylsulfonyl)phenyl)amino)-1H-pyrrolo[2,3-b]pyridine-3-carbonitrile], for which the IC50 in test [1] is 301 to 1000 nM; in test [2], 301 to 1000 nM; in test [3], 101 to 300 nM; in test [4], 301 to 1000 nM.
On to `CCNc1cc(Nc2ccc(C(=O)N3CCOCC3)c3c2OCO3)nc2[nH]cc(C(F)(F)F)c12` [Example 236, (7-((4-(ethylamino)-3-(trifluoromethyl)-1H-pyrrolo[2,3-b]pyridin-6-yl)amino)benzo[d][1,3]dioxol-4-yl)(morpholino) methanone], for which the half-inhibitory concentration (IC50) is under 100 nM in test [1], under 100 nM in test [2], under 100 nM in test [3] and 101 to 300 nM in test [4].
